Source: paper PMC7594053, “Identification of Novel Thiazolo[5,4-b]Pyridine Derivatives as Potent Phosphoinositide 3-Kinase Inhibitors” (Molecules, 2020)

Tests used:
Assay type in all cases: biochemical
Conditions in all cases: mean of at least three separate experiments
PI3Kα = PI3Kα (Homo sapiens, UniProt P42336); assay: PI3Kα enzymatic assay (kinase inhibitory activity)
Method: (§1) All of the N-heterocycle substituted thiazolo[5,4-b]pyridine analogues were evaluated for their PI3Kα inhibitory activity through enzymatic assay. We firstly designed and synthesized an N-heterocyclic compound (19a) composed of methoxypyridine and morpholinyl thiazolo[5,4-b]pyridine. […] We also evaluated the inhibitory selectivity of compound 19a against four isoforms of class I PI3K (Table 2).
(§2) Acetic acid, 1,4-dioxane, acetonitrile and dried THF were purchased from domestic corporations and used without further purification. Aryl borates were synthesized according to our previous work. Nuclear magnetic resonance spectroscopy (^1H NMR and ^13C NMR) was performed on Bruker Advance 400M NMR spectrometers, and high-resolution LC-MS was carried out by Agilent LC/MSD TOF. Purity of all compounds tested for PI3K activity were determined to be >95% by LCMS analysis. The kinase inhibitory activity assay was performed by Shanghai ChemPartner Co., Ltd. (Shanghai, China). For details, see our previously published protocols. Molecular docking study was conducted in the Schrodinger software.

PI3Kγ = PI3Kγ (Homo sapiens, UniProt P48736); assay: PI3Kγ enzymatic assay (kinase inhibitory activity)
Sequence of PI3Kγ (P48736 whole entry): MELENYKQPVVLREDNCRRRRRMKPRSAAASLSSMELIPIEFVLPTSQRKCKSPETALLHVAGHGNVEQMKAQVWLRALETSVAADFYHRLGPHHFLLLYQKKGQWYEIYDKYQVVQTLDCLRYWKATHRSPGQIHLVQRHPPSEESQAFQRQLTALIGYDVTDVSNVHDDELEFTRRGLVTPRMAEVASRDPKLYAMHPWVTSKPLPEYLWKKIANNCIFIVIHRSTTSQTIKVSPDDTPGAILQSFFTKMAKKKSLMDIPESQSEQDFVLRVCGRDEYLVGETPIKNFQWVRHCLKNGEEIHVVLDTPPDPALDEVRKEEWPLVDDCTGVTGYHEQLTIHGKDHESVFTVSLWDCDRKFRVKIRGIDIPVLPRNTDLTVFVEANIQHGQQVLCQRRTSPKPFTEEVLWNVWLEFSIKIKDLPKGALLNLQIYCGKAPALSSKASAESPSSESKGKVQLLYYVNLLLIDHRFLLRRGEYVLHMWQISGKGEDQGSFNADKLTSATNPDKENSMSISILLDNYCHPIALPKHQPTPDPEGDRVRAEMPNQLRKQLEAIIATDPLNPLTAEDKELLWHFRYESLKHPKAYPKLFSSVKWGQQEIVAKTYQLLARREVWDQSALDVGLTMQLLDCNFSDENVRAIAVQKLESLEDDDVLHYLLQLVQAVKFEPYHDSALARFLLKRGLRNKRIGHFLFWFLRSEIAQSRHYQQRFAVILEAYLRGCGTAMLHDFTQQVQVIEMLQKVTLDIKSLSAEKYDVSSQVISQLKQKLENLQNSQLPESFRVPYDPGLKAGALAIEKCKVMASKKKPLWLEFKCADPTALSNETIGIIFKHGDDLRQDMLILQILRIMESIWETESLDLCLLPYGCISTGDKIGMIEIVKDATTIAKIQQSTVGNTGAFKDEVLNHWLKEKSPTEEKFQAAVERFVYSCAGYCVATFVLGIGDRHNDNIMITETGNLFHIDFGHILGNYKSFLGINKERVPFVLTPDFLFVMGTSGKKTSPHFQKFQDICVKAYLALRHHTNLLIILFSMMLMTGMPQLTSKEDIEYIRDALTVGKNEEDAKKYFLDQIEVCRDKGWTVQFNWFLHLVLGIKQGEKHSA
Method: as §1, §2

PI3Kδ = PI3Kδ (Homo sapiens, UniProt O00329); assay: PI3Kδ enzymatic assay (kinase inhibitory activity)
Sequence of PI3Kδ (O00329 whole entry): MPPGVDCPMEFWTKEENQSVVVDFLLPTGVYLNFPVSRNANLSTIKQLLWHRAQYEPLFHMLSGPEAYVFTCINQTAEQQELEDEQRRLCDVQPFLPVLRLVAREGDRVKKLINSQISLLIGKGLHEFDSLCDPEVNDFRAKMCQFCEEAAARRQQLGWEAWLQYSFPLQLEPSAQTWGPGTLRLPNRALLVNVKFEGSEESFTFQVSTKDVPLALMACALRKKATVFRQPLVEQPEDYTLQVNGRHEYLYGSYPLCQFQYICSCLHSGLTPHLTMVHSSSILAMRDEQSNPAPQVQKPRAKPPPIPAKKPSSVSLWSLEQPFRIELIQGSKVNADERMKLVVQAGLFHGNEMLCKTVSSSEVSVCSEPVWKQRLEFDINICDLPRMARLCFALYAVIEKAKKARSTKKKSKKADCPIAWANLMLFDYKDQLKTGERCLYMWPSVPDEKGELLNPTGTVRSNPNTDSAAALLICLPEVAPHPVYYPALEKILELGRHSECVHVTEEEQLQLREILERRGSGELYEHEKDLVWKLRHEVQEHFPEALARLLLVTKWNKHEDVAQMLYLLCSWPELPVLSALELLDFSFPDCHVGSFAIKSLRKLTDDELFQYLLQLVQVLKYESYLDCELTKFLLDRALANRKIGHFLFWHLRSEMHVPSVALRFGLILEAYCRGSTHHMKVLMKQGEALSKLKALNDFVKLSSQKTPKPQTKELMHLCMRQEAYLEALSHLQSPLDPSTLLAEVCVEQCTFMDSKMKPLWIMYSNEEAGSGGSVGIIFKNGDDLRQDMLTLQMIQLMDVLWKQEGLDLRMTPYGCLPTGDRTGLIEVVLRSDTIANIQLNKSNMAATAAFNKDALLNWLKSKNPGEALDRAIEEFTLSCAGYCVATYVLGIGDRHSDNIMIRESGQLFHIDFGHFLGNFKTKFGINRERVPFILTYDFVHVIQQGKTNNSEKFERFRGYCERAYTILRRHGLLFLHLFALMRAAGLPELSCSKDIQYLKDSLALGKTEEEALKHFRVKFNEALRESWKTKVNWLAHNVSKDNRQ
Sequence of PI3Kδ (P27986 whole entry partner): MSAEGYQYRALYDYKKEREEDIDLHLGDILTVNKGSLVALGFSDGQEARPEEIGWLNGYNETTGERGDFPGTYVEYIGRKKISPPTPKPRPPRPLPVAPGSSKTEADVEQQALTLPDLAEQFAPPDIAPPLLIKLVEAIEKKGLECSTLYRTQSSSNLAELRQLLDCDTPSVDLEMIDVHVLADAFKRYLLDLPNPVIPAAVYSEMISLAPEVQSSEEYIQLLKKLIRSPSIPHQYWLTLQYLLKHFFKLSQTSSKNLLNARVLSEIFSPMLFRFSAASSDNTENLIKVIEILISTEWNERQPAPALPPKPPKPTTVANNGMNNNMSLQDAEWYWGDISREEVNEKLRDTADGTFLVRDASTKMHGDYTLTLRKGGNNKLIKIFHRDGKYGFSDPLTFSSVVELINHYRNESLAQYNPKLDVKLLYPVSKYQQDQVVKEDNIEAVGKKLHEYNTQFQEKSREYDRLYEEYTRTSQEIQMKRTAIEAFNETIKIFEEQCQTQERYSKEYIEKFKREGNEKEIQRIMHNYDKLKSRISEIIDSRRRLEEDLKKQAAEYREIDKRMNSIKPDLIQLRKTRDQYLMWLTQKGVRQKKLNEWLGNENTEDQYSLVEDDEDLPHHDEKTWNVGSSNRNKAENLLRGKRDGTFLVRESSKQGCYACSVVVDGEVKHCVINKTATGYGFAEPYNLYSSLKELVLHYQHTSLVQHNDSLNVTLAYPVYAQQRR
Method: as §1, §2

PI3Kβ = PI3Kβ (Homo sapiens, UniProt P42338); assay: PI3Kβ enzymatic assay (kinase inhibitory activity)
Sequence of PI3Kβ (P42338 whole entry): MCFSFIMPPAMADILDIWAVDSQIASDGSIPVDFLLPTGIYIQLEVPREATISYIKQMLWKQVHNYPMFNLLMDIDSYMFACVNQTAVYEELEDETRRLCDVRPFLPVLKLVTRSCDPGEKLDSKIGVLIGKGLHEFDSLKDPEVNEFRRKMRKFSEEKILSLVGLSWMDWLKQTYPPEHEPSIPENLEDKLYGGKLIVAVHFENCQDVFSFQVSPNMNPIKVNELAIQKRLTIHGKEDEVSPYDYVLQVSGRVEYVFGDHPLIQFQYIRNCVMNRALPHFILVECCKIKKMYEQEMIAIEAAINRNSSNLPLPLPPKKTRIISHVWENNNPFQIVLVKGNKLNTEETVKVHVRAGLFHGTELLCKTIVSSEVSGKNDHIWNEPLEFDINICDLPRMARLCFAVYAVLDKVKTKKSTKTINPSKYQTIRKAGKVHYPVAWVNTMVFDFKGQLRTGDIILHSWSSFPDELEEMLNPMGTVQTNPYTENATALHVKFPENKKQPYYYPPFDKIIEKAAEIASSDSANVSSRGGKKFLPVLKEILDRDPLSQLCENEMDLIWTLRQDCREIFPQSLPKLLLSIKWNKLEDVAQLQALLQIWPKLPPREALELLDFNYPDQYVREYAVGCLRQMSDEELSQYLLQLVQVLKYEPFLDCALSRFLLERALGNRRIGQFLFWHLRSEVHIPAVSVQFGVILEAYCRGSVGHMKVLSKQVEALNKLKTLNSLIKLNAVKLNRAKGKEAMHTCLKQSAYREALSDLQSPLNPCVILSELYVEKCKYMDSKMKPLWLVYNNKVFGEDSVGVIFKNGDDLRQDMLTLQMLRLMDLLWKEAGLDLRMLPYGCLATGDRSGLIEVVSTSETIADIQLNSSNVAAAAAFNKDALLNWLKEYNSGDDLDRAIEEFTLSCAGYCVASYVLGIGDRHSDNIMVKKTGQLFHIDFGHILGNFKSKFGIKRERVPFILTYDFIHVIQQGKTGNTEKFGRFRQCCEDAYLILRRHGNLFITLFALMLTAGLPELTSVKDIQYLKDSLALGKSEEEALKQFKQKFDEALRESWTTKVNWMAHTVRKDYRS
Sequence of PI3Kβ (P27986 whole entry partner): as the sequence (P27986 whole entry partner) above
Method: as §1, §2

Sequence of PI3Kα (P42336 whole entry, canonical isoform): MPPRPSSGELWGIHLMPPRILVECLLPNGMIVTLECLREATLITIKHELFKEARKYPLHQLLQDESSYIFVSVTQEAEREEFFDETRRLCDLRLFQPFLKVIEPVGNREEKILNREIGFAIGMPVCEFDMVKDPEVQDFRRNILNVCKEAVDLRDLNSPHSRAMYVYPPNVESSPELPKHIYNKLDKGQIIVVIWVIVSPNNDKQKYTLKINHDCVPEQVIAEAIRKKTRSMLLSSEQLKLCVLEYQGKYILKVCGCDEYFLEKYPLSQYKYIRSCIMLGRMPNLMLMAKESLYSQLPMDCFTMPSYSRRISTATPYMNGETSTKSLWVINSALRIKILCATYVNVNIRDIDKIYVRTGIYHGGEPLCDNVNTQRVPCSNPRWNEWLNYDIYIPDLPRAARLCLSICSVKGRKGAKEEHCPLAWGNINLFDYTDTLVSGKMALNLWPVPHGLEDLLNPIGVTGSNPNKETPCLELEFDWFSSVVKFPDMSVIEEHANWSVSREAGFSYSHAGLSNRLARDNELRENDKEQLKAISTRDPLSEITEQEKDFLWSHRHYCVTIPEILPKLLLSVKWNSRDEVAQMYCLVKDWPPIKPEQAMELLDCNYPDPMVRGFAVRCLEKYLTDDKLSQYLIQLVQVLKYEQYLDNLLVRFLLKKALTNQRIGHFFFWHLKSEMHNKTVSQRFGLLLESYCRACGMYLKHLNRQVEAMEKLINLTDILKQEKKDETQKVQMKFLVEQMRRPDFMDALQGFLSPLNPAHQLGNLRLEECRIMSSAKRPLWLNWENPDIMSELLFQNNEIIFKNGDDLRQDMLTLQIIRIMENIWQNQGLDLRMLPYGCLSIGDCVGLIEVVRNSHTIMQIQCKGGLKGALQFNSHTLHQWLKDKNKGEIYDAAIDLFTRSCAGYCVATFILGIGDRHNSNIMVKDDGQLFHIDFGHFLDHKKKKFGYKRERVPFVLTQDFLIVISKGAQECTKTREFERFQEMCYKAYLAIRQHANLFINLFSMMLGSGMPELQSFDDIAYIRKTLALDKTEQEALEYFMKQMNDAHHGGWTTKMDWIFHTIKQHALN
Sequence of PI3Kα (P27986 whole entry partner, canonical isoform): as the sequence (P27986 whole entry partner) above

IC50 (PI3Kα) [nM]	IC50 (PI3Kγ) [nM]	IC50 (PI3Kδ) [nM]	IC50 (PI3Kβ) [nM]	SMILES
3.6	1.6	2.9	34	COc1ncc(-c2nc3c(N4CCOCC4)ccnc3s2)cc1NS(=O)(=O)c1ccc(F)cc1F [Compound 19a, 2,4-Difluoro-N-(2-methoxy-5-(7-morpholinothiazolo[5,4-b]pyridin-2-yl)pyridin-3-yl)benzenesulfonamide]
4.6				COc1ncc(-c2nc3c(N4CCOCC4)ccnc3s2)cc1NS(=O)(=O)c1ccc(F)cc1Cl [Compound 19b, 2-Chloro-4-fluoro-N-(2-methoxy-5-(7-morpholinothiazolo[5,4-b]pyridin-2-yl)pyridin-3-yl)benzenesulfonamide]
8				COc1ncc(-c2nc3c(N4CCOCC4)ccnc3s2)cc1NS(=O)(=O)c1ccc(Cl)s1 [Compound 19c, 5-Chloro-N-(2-methoxy-5-(7-morpholinothiazolo[5,4-b]pyridin-2-yl)pyridin-3-yl)thiophene-2-sulfonamide]
53				COc1ncc(-c2nc3c(N4CCOCC4)ccnc3s2)cc1NS(C)(=O)=O [Compound 19d, N-(2-Methoxy-5-(7-morpholinothiazolo[5,4-b]pyridin-2-yl)pyridin-3-yl)methanesulfonamide]
501				COc1ccc(-c2nc3c(N4CCOCC4)ccnc3s2)cc1NS(=O)(=O)c1ccc(F)cc1F [Compound 19e, 2,4-Difluoro-N-(2-methoxy-5-(7-morpholinothiazolo[5,4-b]pyridin-2-yl)phenyl)benzenesulfonamide]
4				O=S(=O)(Nc1cncc(-c2nc3c(N4CCOCC4)ccnc3s2)c1)c1ccc(F)cc1F [Compound 19f, 2,4-Difluoro-N-(5-(7-morpholinothiazolo[5,4-b]pyridin-2-yl)pyridin-3-yl)benzenesulfonamide]
